Common to all, as to experiment: NCI-60 cell line screen, 48 h
The subject of assay [1] is A549 NSCLC.
The subject of assay [2] is ACHN renal.
For assay [3], the system named is BT-549 breast.
For assay [4], the system named is CAKI-1 renal.
In assay [5] the test system is COLO 205 colon.
The test system of assay [6] is DU-145 prostate.
Assay [7] has as its system HCT-116 colon.
In assay [8] the test system is HS 578T breast.
Assay [9] concerns HT29 colon.
Assay [10] concerns KM12 colon.
In assay [11] the test system is MCF7 breast.
Assay [12] relates to NCI/ADR-RES ovarian.
The test system of assay [13] is RPMI-8226 leukemia.
Assay [14] has as its system SF-268 CNS.
For assay [15], the system named is SF-295 CNS.
Assay [16] concerns SK-MEL-2 melanoma.
For assay [17], the system named is SK-MEL-5 melanoma.
For assay [18], the system named is SK-OV-3 ovarian.
The subject of assay [19] is SW-620 colon.
The test system of assay [20] is U251 CNS.

Molecules are shown by their SMILES.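 Compound exposure: 48 hours, 5 concentrations, 96-well plates. TGI: concentration producing complete growth inhibition.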

The values that follow come from PubChem BioAssay (NCI).

Take `COc1ccc2c(c1)-c1c(c3cc(OC)ccc3n1CCCN(C)C)CC2`: the TGI in assay [1] was 50.6 µM; in [2] it was 35.9 µM; in [3] it was 32.2 µM; in assay [4], 28.1 µM; in [5] it was 5.9 µM; in [6] it was 33.4 µM. The TGI stood at 51.1 µM in [7]; 20.5 µM in [8]; 13.9 µM in assay [9]; 21.8 µM in [10]; 26.5 µM in assay [11]; 31.4 µM in assay [12]. Besides, the TGI in assay [13] stood at 26 µM; in assay [14], 26.2 µM; in assay [15], 16.8 µM; in assay [16], 31 µM; in assay [17], 8.29 µM; in [18] it was 32.7 µM. Further, the TGI was 32.1 µM in [19] and 27 µM in assay [20].

With `O=c1[nH]c(N/N=C\C(=N/Nc2nc3ccccc3c(=O)[nH]2)C(O)C(O)C(O)CO)nc2ccccc12` (stereo not given), the TGI in [1], in assay [2], in [3], in [4], in assay [5] and in assay [6] was over 100 µM throughout. Moreover, the TGI in assay [7], in assay [8], in [9], in assay [10], in [11] and in assay [12] was over 100 µM throughout. Besides, the TGI in assay [13], in [14], in assay [15], in assay [16], in [17] and in assay [18] was over 100 µM throughout. Besides, the TGI in assay [19] and in assay [20] was over 100 µM each time.

As for `Cc1cc2nc(C=C(C(F)(F)F)C(F)(F)F)sc2cc1C`, the TGI in assay [1] amounted to 26.7 µM; in [2], 7.48 µM; in assay [3], 4.64 µM; in [4], 8.24 µM; in [5], 13.7 µM; in [6], 10.2 µM. Further, the TGI is 2.93 µM in assay [7]; 9.69 µM in assay [8]; 9.93 µM in assay [9]; 4.41 µM in assay [10]; 12.5 µM in assay [11]; 14.6 µM in [12]. The TGI in assay [13] was determined as 1.41 µM; in assay [14], 11.3 µM; in assay [15], 13.4 µM; in assay [16] it was 5.27 µM; in assay [17], 8.77 µM; in assay [18], 32.7 µM. For the same compound, the TGI came to 10.7 µM in assay [19] and 4.21 µM in [20].

`CCC/C(Cl)=N/OC(=O)Nc1cc(C(F)(F)F)ccc1OC`: the TGI was 34.6 µM in assay [1]; 26.1 µM in [2]; 28.8 µM in assay [3]; 9.01 µM in assay [4]; 3.45 µM in assay [5]; 30 µM in assay [6]. Besides, the TGI in [7] was 22.8 µM; in assay [8], over 72.2 µM; in assay [9], 44.1 µM; in assay [10] it was 33.5 µM; in assay [11] it was 27.7 µM; in [12], 33.1 µM. Besides, the TGI was 6.05 µM in assay [13]; 29.8 µM in assay [14]; 32.3 µM in [15]; 31.5 µM in assay [16]; 19.9 µM in assay [17]; 21.8 µM in assay [18]. Besides, the TGI in [19] was found to be 11.4 µM; in assay [20], 31.6 µM.

Consider `C/C(N)=C/C(=O)c1[nH]c(C(=O)O)cc1C1CCN(Cc2ccccc2)C1=O` (stereo not given), for which the TGI in [1] was over 100 µM; in assay [2], over 100 µM; in [3] it was 74.6 µM; in assay [4] it was over 100 µM; in assay [5] it was 65.1 µM; in assay [6] it was 84.3 µM. Moreover, the TGI is 63.8 µM in assay [7]; over 100 µM in assay [8]; over 100 µM in assay [9]; over 100 µM in [10]; 95.8 µM in assay [11]; 51.6 µM in [12]. The TGI in [13] was determined as 44.7 µM; in assay [14], 60.8 µM; in assay [15] it was 49.6 µM; in assay [16], 77.6 µM; in assay [17], 33.8 µM; in assay [18], 71.3 µM. In addition, the TGI in assay [19] and in assay [20] was over 100 µM throughout.

On to `COc1ccc2c(C)c(Oc3c(Cl)c(Cl)c(O)c(C#N)c3C#N)oc2c1`, for which the TGI in [1], in assay [2], in assay [3], in assay [4], in assay [5] and in assay [6] was over 100 µM in each case. Besides, the TGI in [7], in [8], in assay [9], in assay [10], in assay [11] and in [12] was over 100 µM in each case. The TGI in [13], in assay [14], in assay [15], in assay [16], in assay [17] and in assay [18] was over 100 µM throughout. For the same compound, the TGI in assay [19] and in assay [20] was over 100 µM throughout.
